Laboratory results published in patent US7432260B2, “Pyrimidine compounds” (Cyclacel Limted, priority 2002, dated 2008).

What was measured:
CDK2/cyclin A = CDK2/cyclin A (Homo sapiens, UniProt P24941); test: Kinase assay CDK2/cyclin A; assay type: biochemical; settings: Table 2; read-out: Kinase Inhibition IC50 CDK2 cyclin A
Summary of the method: (§1)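 Each kinase phosphorylates a suitable polypeptide using 32P-labelled ATP (100 μM) at 30° C. Filtered, washed product is counted.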

CDK2/cyclin E = CDK2/cyclin E (Homo sapiens, UniProt P24941); test: Kinase assay CDK2/cyclin E; assay type: biochemical; settings: Table 2; read-out: Kinase Inhibition IC50 CDK2 cyclin E
Summary of the method: as §1

GSK-3β = GSK-3β (Homo sapiens, UniProt P49841); test: Kinase assay GSK-3β; assay type: biochemical; settings: Table 2; read-out: Kinase Inhibition IC50 GSK-3β
Description: (§2) Kinase assays. […] This was achieved by measurement of incorporation of radioactive phosphate from ATP into appropriate polypeptide substrates. Recombinant protein kinases and kinase complexes were produced or obtained commercially. Assays were performed using 96-well plates and appropriate assay buffers (typically 25 mM β-glycerophosphate, 20 mM MOPS, 5 mM EGTA, 1 mM DTT, 1 mM […], pH 7.4), into which were added 2-4 μg of active enzyme with appropriate substrates. The reactions were initiated by addition of Mg/ATP mix (15 mM MgCl2+100 μM ATP with 30-50 kBq per well of [γ-^32P]-ATP) and mixtures incubated as required at 30° C. Reactions were stopped on ice, followed by filtration through p81 filterplates or GF/C filterplates (Whatman Polyfiltronics, Kent, UK). After washing 3 times with 75 mM aq orthophosphoric acid, plates were dried, scintillant added and incorporated radioactivity measured in a scintillation counter (TopCount, Packard Instruments, Pangbourne, Berks, UK). Compounds for kinase assay were made-up as 10 mM stocks in DMSO and diluted into 10% DMSO inrassay buffer.

CDK4/cyclin D1 = CDK4/cyclin D1 (Homo sapiens, UniProt P11802); test: Kinase assay CDK4/cyclin D1; assay type: biochemical; settings: Table 2; read-out: Kinase Inhibition IC50 CDK4 cyclin D1
Summary of the method: as §1

CDK7/cyclin H = CDK7/cyclin H (Homo sapiens, UniProt P50613); test: CDK7 assay; assay type: biochemical; settings: Table 2; read-out: Kinase Inhibition IC50 CDK7 cyclin H
Summary of the method: (§3)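 Radiometric filter-binding format: test compound at varying amounts incubated with CTD peptide (biotinyl-Ahx-(YSPTSPS)4-NH2) and either CDK9/cyclin T1 or CDK7/cyclin H, using 100 μM ATP spiked with 32P, 45 min, 30 °C, pH 7.2. Reactions were stopped on ice, bound to avidin, filtered on P81 plates and scintillation-counted.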

HT29 = test: 72-h MTT cytotoxicity assay HT29; assay type: cell-based; settings: Homo sapiens, HT-29, 72 h, Table 4
Summary of the method: (§4)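 Cells were seeded at densities set by doubling time, left overnight at 37° C, then exposed in triplicate to a 1/3 dilution series of compound (DMSO stock) for 72 h at 37° C. Viability was read by MTT reduction (4 h, dark, 37° C) with formazan dissolved in DMSO.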

A549 = test: 72-h MTT cytotoxicity assay A549; assay type: cell-based; settings: Homo sapiens, A549, 72 h, Table 4
Summary of the method: as §4

CDK1/cyclin B = CDK1/cyclin B (Homo sapiens, UniProt P06493); test: Kinase assay CDK1/cyclin B; assay type: biochemical; settings: Table 2; read-out: Kinase Inhibition IC50 CDK1 cyclin B
Summary of the method: as §1

Saos-2 = test: 72-h MTT cytotoxicity assay Saos-2; assay type: cell-based; settings: Homo sapiens, SAOS-2, 72 h, Table 4
Summary of the method: as §4

CDK9/cyclin T1 = CDK9/cyclin T1 (Homo sapiens, UniProt P50750); test: CDK9 assay; assay type: biochemical; settings: Table 2; read-out: Kinase Inhibition IC50 CDK9 cyclin T1
Summary of the method: as §3

PLK-1 = PLK-1 (Homo sapiens, UniProt P53350); test: Kinase assay PLK-1; assay type: biochemical; settings: Table 2; read-out: Kinase Inhibition IC50 PLK-1
Description: as §2

Chain of PLK-1 (P53350 whole entry): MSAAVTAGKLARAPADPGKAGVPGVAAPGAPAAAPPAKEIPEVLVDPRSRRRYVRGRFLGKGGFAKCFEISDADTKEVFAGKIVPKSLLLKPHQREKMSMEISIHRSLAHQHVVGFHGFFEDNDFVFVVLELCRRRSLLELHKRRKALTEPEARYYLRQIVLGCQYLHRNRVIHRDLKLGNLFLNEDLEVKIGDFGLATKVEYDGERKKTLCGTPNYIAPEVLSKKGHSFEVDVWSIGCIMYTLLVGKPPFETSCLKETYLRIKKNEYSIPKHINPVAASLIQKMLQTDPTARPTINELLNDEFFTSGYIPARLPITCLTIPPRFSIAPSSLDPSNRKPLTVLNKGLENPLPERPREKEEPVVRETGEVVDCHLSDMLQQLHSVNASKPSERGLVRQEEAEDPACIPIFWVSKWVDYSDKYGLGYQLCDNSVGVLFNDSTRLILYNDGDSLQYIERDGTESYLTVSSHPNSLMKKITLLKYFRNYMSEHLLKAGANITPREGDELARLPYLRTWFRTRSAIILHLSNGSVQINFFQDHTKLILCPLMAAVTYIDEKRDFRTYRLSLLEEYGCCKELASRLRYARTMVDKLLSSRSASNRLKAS
Chain of CDK4/cyclin D1 (P11802 whole entry): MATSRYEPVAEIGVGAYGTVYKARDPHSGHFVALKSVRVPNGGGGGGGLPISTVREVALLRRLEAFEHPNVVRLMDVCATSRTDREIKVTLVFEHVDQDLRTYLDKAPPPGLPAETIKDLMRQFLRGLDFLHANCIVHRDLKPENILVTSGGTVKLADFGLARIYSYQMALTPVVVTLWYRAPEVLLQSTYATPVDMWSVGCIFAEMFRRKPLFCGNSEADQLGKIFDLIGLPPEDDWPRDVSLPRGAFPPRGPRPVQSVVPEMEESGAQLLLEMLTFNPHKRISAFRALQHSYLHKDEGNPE
Chain of CDK4/cyclin D1 (P24385 whole entry partner): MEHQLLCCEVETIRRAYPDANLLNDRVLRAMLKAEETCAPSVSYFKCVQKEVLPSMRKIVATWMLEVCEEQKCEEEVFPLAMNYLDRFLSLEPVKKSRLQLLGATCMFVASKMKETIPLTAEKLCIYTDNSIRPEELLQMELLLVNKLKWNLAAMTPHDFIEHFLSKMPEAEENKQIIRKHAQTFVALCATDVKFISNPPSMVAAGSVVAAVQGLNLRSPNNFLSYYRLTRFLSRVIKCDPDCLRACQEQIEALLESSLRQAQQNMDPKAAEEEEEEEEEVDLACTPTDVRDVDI
Chain of CDK7/cyclin H (P50613 whole entry): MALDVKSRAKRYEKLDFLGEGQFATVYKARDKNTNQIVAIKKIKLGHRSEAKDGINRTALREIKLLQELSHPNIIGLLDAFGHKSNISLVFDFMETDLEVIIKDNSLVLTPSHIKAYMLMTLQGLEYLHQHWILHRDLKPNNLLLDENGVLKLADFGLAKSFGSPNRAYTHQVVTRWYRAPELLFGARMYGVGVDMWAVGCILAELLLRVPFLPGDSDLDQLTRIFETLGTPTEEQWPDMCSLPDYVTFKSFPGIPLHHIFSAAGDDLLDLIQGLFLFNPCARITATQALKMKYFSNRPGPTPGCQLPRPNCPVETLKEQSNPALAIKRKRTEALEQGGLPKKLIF
Chain of CDK1/cyclin B (P06493 whole entry): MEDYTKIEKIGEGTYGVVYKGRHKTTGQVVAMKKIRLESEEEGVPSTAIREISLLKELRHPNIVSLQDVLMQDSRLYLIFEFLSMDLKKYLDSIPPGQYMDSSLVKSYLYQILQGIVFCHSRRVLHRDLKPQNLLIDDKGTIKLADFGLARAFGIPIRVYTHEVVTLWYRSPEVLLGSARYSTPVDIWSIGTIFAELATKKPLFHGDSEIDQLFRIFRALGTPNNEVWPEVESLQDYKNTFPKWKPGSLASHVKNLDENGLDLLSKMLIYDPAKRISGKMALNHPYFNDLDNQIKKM
Chain of CDK1/cyclin B (P14635 whole entry partner): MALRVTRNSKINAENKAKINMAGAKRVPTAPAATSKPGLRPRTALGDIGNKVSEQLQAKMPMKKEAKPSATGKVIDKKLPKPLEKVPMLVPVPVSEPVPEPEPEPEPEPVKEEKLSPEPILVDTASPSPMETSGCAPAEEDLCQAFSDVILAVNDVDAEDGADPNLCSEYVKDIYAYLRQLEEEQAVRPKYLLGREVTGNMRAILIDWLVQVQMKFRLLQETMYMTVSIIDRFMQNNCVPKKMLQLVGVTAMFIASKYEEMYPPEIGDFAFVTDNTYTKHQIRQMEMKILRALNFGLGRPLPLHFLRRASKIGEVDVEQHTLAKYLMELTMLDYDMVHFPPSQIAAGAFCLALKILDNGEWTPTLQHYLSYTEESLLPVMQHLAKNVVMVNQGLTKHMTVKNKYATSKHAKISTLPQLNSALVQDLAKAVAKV
Chain of CDK9/cyclin T1 (P50750 whole entry): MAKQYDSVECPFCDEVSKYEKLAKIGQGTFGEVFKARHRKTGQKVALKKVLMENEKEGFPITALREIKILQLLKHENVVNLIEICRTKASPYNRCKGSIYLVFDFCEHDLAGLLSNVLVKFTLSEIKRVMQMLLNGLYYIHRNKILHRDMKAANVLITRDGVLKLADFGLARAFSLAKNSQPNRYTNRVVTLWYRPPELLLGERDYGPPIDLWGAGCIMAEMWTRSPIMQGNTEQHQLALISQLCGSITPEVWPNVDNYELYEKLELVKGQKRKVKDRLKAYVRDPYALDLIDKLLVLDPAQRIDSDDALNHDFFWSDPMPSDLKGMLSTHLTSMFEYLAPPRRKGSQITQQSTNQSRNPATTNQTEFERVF
Chain of CDK9/cyclin T1 (O60563 whole entry partner): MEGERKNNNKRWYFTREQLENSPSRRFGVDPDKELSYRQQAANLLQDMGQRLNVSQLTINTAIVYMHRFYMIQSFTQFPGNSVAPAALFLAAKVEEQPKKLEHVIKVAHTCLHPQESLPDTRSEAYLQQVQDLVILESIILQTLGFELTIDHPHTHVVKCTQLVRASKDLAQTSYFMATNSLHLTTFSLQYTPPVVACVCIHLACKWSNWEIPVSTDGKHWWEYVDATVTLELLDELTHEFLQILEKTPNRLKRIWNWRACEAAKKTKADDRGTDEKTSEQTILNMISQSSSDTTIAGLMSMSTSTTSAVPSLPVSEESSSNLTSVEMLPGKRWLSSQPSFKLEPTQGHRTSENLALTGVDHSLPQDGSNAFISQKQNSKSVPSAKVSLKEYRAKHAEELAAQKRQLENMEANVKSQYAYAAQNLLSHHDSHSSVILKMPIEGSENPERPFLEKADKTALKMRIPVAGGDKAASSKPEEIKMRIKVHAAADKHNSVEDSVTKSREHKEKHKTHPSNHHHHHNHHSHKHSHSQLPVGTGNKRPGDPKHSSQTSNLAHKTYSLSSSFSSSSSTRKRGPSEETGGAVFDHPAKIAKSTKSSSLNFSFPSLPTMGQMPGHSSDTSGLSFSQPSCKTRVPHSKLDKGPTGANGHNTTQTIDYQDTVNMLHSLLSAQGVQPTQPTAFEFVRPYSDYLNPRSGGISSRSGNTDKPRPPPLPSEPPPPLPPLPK
Chain of GSK-3β (P49841 whole entry): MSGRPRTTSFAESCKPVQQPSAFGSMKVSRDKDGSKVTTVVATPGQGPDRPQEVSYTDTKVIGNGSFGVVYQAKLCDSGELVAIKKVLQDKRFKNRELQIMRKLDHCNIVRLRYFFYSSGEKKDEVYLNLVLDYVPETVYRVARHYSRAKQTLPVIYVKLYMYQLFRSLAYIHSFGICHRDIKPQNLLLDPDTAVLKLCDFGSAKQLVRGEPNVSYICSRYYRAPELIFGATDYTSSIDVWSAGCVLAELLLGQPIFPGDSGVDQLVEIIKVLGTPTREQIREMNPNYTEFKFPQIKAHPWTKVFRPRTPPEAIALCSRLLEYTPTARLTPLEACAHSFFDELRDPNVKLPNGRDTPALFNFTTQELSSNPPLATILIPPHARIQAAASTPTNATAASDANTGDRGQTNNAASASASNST

| SMILES | IC50 (CDK2/cyclin A) [µM] | IC50 (CDK2/cyclin E) [µM] | IC50 (GSK-3β) [µM] | melting point [°C] | IC50 (CDK4/cyclin D1) [µM] | IC50 (CDK7/cyclin H) [µM] | IC50 (HT29) [µM] | IC50 (A549) [µM] | IC50 (CDK1/cyclin B) [µM] | IC50 (Saos-2) [µM] | IC50 (CDK9/cyclin T1) [µM] | IC50 (PLK-1) [µM] |
| --- | --- | --- | --- | --- | --- | --- | --- | --- | --- | --- | --- | --- |
| CNc1nc(C)c(-c2ccnc(Nc3ccc(CCO)cc3)n2)s1 [Compound 59, 2-{4-[4-(4-Methyl-2-methylamino-thiazol-5-yl)-pyrimidin-2-ylamino]-phenyl}-ethanol] | 0.11 | 0.14 | 2.2 | 216 to 218 | 0.086 | 2.6 | 1.7 | 2.4 | 0.71 | 1.9 | 0.47 |  |
| CNc1nc(C)c(-c2ccnc(Nc3cccc(CNC(C)=O)c3)n2)s1 [Compound 63, N-{3-[4-(4-Methyl-2-methylamino-thiazol-5-yl)-pyrimidin-2-ylamino]-benzyl}-acetamide] | 12 |  | 8.8 | 253 to 255 | 7.7 | 20 | 1.4 | 0.98 | 48 | 1.2 | 2.7 | 46 |
| CCNc1nc(C)c(-c2ccnc(Nc3cccc(CN)c3)n2)s1 [Compound 65, (3-Aminomethyl-phenyl)-[4-(2-ethylamino-4-methyl-thiazol-5-yl)-pyrimidin-2-yl]-amine] |  | 0.33 |  | 290 to 292 | 0.11 |  | 4.8 | 3.2 |  | 0.65 |  | > 100 |
| CNc1nc(C)c(-c2ccnc(Nc3cccc(CN)c3)n2)s1 [Compound 67, (3-Aminomethyl-phenyl)-[4-(4-methyl-2-methylamino-thiazol-5-yl)-pyrimidin-2-yl]-amine] |  | 0.42 |  | 287 to 289 | 0.24 |  | 14 | 14 |  | 1.1 |  | > 100 |
